Columns and labels:
Soybean [1] = assay: Soybean - Two Year Summary, field trials; format: in vivo; details: Photon 8 g ai/A, Aminoguanidine 2 g ai/A, control 38.9, LSD 0.01 3.9
Description: (§1) In the table below, the treatment labeled “Photon” represents a mixture of azelaic, sebacic, undecanedioic, acids. It is predominantly azelaic acid, and equal parts of the remaining two major constituents. Abbreviations: ai=active ingredient, A=acre, ha=hectare, lbs=pounds, MT=metric ton • Soybean Trial 2018 • Elm City N.C. • Randomized complete block with 5 replicates

Soybean [2] = assay: Soybean Trial 2018, field trial; format: in vivo; details: Soybean 2018, Elm City N.C.; Photon 8 g ai/A, Aminoguanidine 2 g ai/A; control 22.3; LSD 0.05 3.8
Description: as §1

With N=C(N)NN [Aminoguanidine, aminoguanidine] the “Yield (bu/A)” value (Soybean [1]) was 42.5 bu/A and the “Yield (bu/A)” value (Soybean [2]) was 24.3 bu/A.

Reference: patent US11638401B2, “Methods and compositions for increasing tolerance to abiotic stress in plants” (priority 2018, dated 2023)
